According to patent US12440476B2, “Agents that target telomerase reverse transcriptase (TERT) for treating cancer and sensitizing cancer cells to genotoxic therapy” (Northwestern University, priority 2022, dated 2025):

How the values were obtained:
CT26 cells [1] = experiment: Clonogenicity assay (inhibitor alone); type: cell-based, mouse; settings: 1 μM NU-1, 2 μM MST, 20 μM BIBR
Procedure: MCF7, Saos-2, or CT26 cells were seeded in 6-well plates at 100 cells per well in triplicate and allowed to attach overnight. MCF7 or CT26 cells were then treated with DMSO vehicle or TERT inhibitors in final concentration of 0.25, 0.5, 0.75, 1, 2 μM for NU-1, 2.5, 5, 7.5, 10, 20 μM for BIBR 1532, or 1, 2, 3, 4, 5 μM for MST-312. Saos-2 cells were treated with DMSO vehicle or TERT inhibitors in final concentration of 0.25, 0.5, 0.75, 1, 2 μM for NU-1 or 2.5, 5, 10, 20, 40 μM for BIBR 1532. The final volume of cell culture medium was 3 mL per well. MCF7 and Saos-2 cells were continuously cultured for 3 weeks and CT26 for 2 weeks in the presence of TERT inhibitors, fixed in methanol for 5 min, then stained with 0.5% crystal violet for 10 min at room temperature. After washing with water, the plates were dried at room temperature and imaged with an iBright Imaging System (Thermo Fisher Scientific).

CT26 cells [2] = experiment: Clonogenic survival after irradiation (radiosensitivity); type: cell-based, mouse; settings: for Sensitization of CT26 cells to radiation: non-toxic doses; for Mean SF2 (surviving fraction at 2 Gy): CT26 cells, NU-1 1 μM, BIBR 1532 20 μM, MST-312 2 μM for 1 h prior to IR
Procedure: (§1) To assess radiosensitivity, MCF7, Saos-2, or CT26 cells were seeded in 6-well plates at 100 cells per well in triplicate, allowed to attach overnight and treated with DMSO or TERT inhibitors at subtoxic concentrations for 1 h prior to IR. MCF7 cells were treated with 0.5 μM NU-1, 10 μM BIBR 1532, or 1 μM MST-312, Saos-2 cells with 1 μM NU-1 or 20 μM BIBR 1532 and CT26 cells with 1 μM NU-1, 20 μM BIBR 1532 or 2 μM MST-312. Doses of 0, 1, 2, 3, 4, or 5 Gy were applied using a GammaCell ^60Co γ-ray source (Nordion) at a dose rate of 7.09 cGy/sec. After that MCF7 and Saos-2 cells were cultured for 3 weeks and CT26 for 2 weeks, then fixed and stained with crystal violet. Colonies of at least 50 cells were counted. Data from three independent biological replicates were acquired. The surviving fraction (SF) was calculated using the following formula: […]

MCF7 cells [3] = experiment: as above; type: cell-based, human; settings: MCF7 cells; NU-1 0.5 μM, BIBR 1532 10 μM, MST-312 1 μM for 1 h prior to IR; 2 Gy
Procedure: as §1

Saos-2 cells = experiment: as above; type: cell-based, human; settings: NU-1 1 μM
Procedure: as §1

CT26 cells [4] = experiment: Senescence-associated beta-galactosidase (SA-β-Gal) assay; type: cell-based, mouse; settings: non-toxic doses, 10 Gy, 5 days
Procedure: (§2) MCF7, Saos-2, or CT26 cells were seeded at 3×10^4 per well in 6-well plates and allowed to attach to plate overnight. For TERT inhibition, MCF7 cells were treated with DMSO vehicle, NU-2 (0.5 μM), NU-1 (0.5 μM), chrolactomycin (0.5 μM), BIBR 1532 (10 μM), or MST-312 (1 μM) for 1 h prior to IR, Saos-2 cells were treated with DMSO vehicle, NU-2 (1 μM), NU-1 (1 μM), chrolactomycin (1 μM), BIBR 1532 (20 μM), or MST-312 (1 μM) for 1 h prior to IR, and CT26 cells were treated with MSO vehicle, NU-2 (1 μM), NU-1 (1 μM), chrolactomycin (1 μM), BIBR 1532 (20 μM), or MST-312 (2 μM) for 1 h prior to IR. Then MCF7 and Saos-2 cells were irradiated with 0 or 6 Gy and CT26 cells with 0 or 10 Gy. After IR, MCF7 and Saos-2 cells were continuously cultured for 7 days and CT26 for 5 days, then fixed in 2% PFA and stained with staining buffer (1 mg/ml X-Gal (Golden Bio), 40 mM citric acid/sodium phosphate, 150 mM NaCl, 2 mM MgCl2, 3.3 mM K3[Fe(CN)6], 3.3 mM K4[Fe(CN)6], pH=6) for 16 h at 37° C., then washed with warm PBS three times and imaged in PBS within a week. Images were captured on a Zeiss Axiovert 200M microscope with a 20× Plan-NeoFluar objective and Axiocam digital camera. SA-β-Gal-positive and -negative cells were counted in more than 5 fields, yielding an average percentage indicated on each SA-β-Gal image as mean±SD. Three replicates were performed.
To examine the roles for STING, CT26 cells were seeded at 2×10^4 per well in 12-well plates and allowed to attach overnight. STING inhibitor C178 (0 or 4 μM) was added, followed by the addition of DMSO vehicle, NU-1 (1 μM), MST-312 (2 μM) or chrolactomycin (1 μM) for 1 h prior to 0 or 10 Gy. CT26 cells were cultured for 5 days, surviving cells were washed twice in PBS and cultured in fresh immune cell culture medium overnight. The CT26 cells were then cocultured with BMDCs for 12-16 h at a 1:2 ratio, and BMDCs were collected and analyzed after coculturing, as described above.

MCF7 cells [5] = experiment: as above; type: cell-based, human
Procedure: as §2, with “For TERT inhibition, MCF7 cells were treated with DMSO vehicle, NU-2 (0.5 μM), NU-1 (0.5 μM), chrolactomycin (0.5 μM), BIBR 1532 (10 μM), or MST-312 (1 μM) for 1 h prior to IR, Saos-2 cells were treated with DMSO vehicle, NU-2 (1 μM), NU-1 (1 μM), chrolactomycin (1 μM), BIBR 1532 (20 μM), or MST-312 (1 μM) for 1 h prior to IR, and CT26 cells were treated with MSO vehicle, NU-2 (1 μM), NU-1 (1 μM), chrolactomycin (1 μM), BIBR 1532 (20 μM), or MST-312 (2 μM) for 1 h prior to IR.” left out

MCF7-FUCCI cells = experiment: Time-lapse live-cell analysis of cell cycle; type: cell-based, human; settings: 0.5 μM for 1 h, then 6 Gy, 6 days
Procedure: MCF7-FUCCI cells were seeded at 3×10^4 per well in 6-well plates, allowed to attach overnight, then treated with 0.5 μM NU-2 control, NU-1 or chrolactomycin for 1 h, followed by 6 Gy. Then, live-cell imaging was conducted using the IncuCyteS3. Phase contrast along with green and red channels were acquired at 20× magnification with scanning every 2 h for 6 days. 16 non-overlapping fields were captured for each well. Representative consecutive images were used to create the movies using Fiji (Schindelin et al., 2012).

CD8+ T cells = experiment: In vitro T cell priming assay (CFSE dilution); type: cell-based, mouse; settings: DCs stimulated by inhibitor treated and irradiated (10 Gy) CT26 cells; 5 days; NU-1 1 μM, MST 2 μM
Procedure: To evaluate effects of TERT on tumor immunogenicity, CT26 cells were seeded at […] per well in 12-well plates, allowed to attach overnight, and then treated with DMSO, NU-1 (1 μM), or MST-312 (2 μM) for 1 h, followed by 0 or 10 Gy. 5 days after IR, the media were removed, cells washed with PBS, and fresh immune cell culture medium added. CT26 cells were then cultured overnight, followed by coculturing with immature BMDCs for 12-16 h at a 1:2 ratio. After coculture, the suspension BMDCs were collected into round bottom FACS tubes, washed with PBS, and stained with Zombie yellow (1:1000, BioLegend) for 10 min at room temperature. […] After PBS washing, cells were resuspended in 300 μL Cell Staining Buffer and analyzed using a BD Fortessa 4-15 HTS Flow cytometer within 2 hours. Data were then analyzed by FlowJo software. […]
Splenocytes isolated from CT26 immunized mice were stained with 0.5 μM carboxyfluorescein succinimidyl ester (CFSE) (Thermo Fisher Scientific, Cat #C34554) for 10 min at room temperature (Quah et al., 2007). […] Cells were analyzed using a BD Fortessa 4-15 HTS flow cytometer and FlowJo software. […]

| SMILES | Tolerance in clonogenic assay (inhibitor alone) (CT26 cells [1]) | Sensitization of CT26 cells to radiation (CT26 cells [2]) | Mean SF2 (surviving fraction at 2 Gy) (CT26 cells [2]) | Mean SF2 (surviving fraction at 2 Gy) (MCF7 cells [3]) | Radiosensitization in clonogenic survival assay (Saos-2 cells; Saos-2 (telomerase negative), BIBR 20 μM) | Mean SF2 (surviving fraction at 2 Gy) (Saos-2 cells; Saos-2 cells, BIBR 1532 20 μM for 1 h prior to IR, 2 Gy) | Senescence induction by IR (CT26 cells [4]) | Enhancement of senescence after IR at low concentration (MCF7 cells [5]; 50 nM, 7 days after IR) | Surviving cells arrested with G1 marker expression and senescent morphology (MCF7-FUCCI cells) [%] | Proliferating CD8+ T cells (CD8+ T cells) [%] | SA-β-Gal+ cells (MCF7 cells [5]; 7 days after IR (6 Gy)) [%] |
| --- | --- | --- | --- | --- | --- | --- | --- | --- | --- | --- | --- |
| C/C(=C\C(=O)Nc1ccccc1C(=O)O)c1ccc2ccccc2c1 [BIBR 1532] | non-toxic | had no similar effects | 0.727 | 0.256 | Neither NU-1 nor BIBR displayed radiosensitization | 0.580 | had no similar effects | – | – | – | – |
| C=C1C(=O)[C@]2(OC)C(=O)O[C@@]34C[C@H](C)C(C(=O)O)=C[C@@H]3CCC[C@@H](C)C[C@@H](C)[C@H]1O[C@H]24 [CHRO, chrolactomycin, reference compound] | – | – | – | – | – | – | – | sufficient to enhance senescence after IR | ~80 | – | – |
| O=C(Nc1cccc(NC(=O)c2cccc(O)c2O)c1)c1cccc(O)c1O [MST-312] | tolerated | sensitized CT26 cells to radiation | 0.407 | 0.245 | – | – | enhanced senescence induction by IR | – | – | 30.4 | – |
| COC(=O)[C@@]1(C)C(=O)C[C@@H](C)O[C@H]1CCc1cn(Cc2ccc(F)cc2F)nn1 [NU-2] | – | – | – | – | – | – | – | – | ~40 | – | ~34 |
